Assay results reported in US9849116B2 (KNOPP BIOSCIENCES LLC, priority 2008, dated 2017).
“And” between values parts separate entries of the source, which are not always exact repeats. Equal values may be shown once.

Legend:
healthy volunteers [1] = experiment: clinical
Method: (§1) Safety observations included vital signs, physical examination, clinical laboratory tests, ECGs, and adverse event reporting. Blood and urine samples were collected pre-dose and for 72 hours post-dose to assess the pharmacokinetics.

clinical = conditions: human; for AUC(0-t): AUC(0-t) (mean ± SD); for Vd/F: Vz/F (mean ± SD); for CL renal: plasma and urine
Method: as §1

in vivo = conditions: both, minipig
healthy volunteers [2] = conditions: 50 mg Q12H
Method: The first panel was administered a singe dose of 50 mg, followed 48 hours later by 4½ days of multiple dosing (twice daily) at 50 mg Q12 hours. The second panel was administered a singe dose of 100 mg, followed 48 hours later by 4½ days of multiple dosing (twice daily) at 100 mg Q12 hours. Safety observations included vital signs, physical examination, clinical laboratory tests, ECGs, and adverse event reporting. Blood samples were collected pre-dose on Day 1 and serially for 48 hours post-dose to assess the single-dose pharmacokinetics.

[3] = single 150 mg oral dose, fasted
[4] = single 300 mg oral dose, fasted
[5] = plasma, po, 50 mg, single 50 mg oral dose, fasted
[6] = plasma, po, 150 mg, single 150 mg oral dose, fasted
[7] = plasma, po, 150 mg, single 150 mg oral dose, fed
[8] = plasma, po, 300 mg, single 300 mg oral dose, fasted

Method for male beagle dogs: Three groups of four non-naïve male beagle dogs were used in the study. […] Doses were administered orally by gavage and clinical observations were taken continuously following dosing: hourly for the first four hours, and then twice daily cage-side observations for the duration of the inter-dose or post-dose interval. Observations were made of clinical signs, mortality, injury and availability of food and water. Animals were fasted for 24 hr prior to dosing. Dogs in each group were exposed to only one drug, or the combination; each dose was administered only once, with a subsequent dose administered after a recovery period of 4 days.

CCCN[C@@H]1CCc2nc(N)sc2C1 [(R)-pramipexole, (6R)-4,5,6,7-tetrahydro-N6-propyl-2,6-benzothiazole-diamine]
human equivalence dose of the MTD (male beagle dogs; based on dog data, 70 kg human subject): about 3,000 mg
observable effects in dogs (male beagle dogs; dog, in vivo): no observable effects
functional separation between the (S)- and (R)-enantiomers (male beagle dogs; male, beagle, dog, in vivo, 4 days): 10,000-20,000 fold
CL/F (mean ± SD) (healthy volunteers [1]; 50 mg SD, Fasted): 706 ± 182 mL/h
CL/F (mean ± SD) (healthy volunteers [1]; 150 mg SD, Fasted): 692 ± 183 mL/h
CL/F (mean ± SD) (healthy volunteers [1]; 150 mg SD, second 150 mg line, Food printed Fasted): 774 ± 165 mL/h
CL/F (mean ± SD) (healthy volunteers [1]; 300 mg SD, Fasted): 659 ± 260 mL/h
urinary excretion of unchanged drug, share of drug elimination (healthy volunteers [1]; across dose levels): approximately 70%
CL/F (mean ± SD) (healthy volunteers [1]; single 50 mg oral dose, fasted): 42400 ± 10900 mL/h
Fe (mean ± SD) (healthy volunteers [1]; single 50 mg oral dose, fasted): 70.7 ± 10.4 % Dose
Ue (mean ± SD) (healthy volunteers [1]; single 50 mg oral dose, fasted): 35.3 ± 5.19 mg and 35.3 ± 5.19 ^ mg
λz (mean ± SD) (healthy volunteers [1]; single 50 mg oral dose, fasted): 0.1064 ± 0.0171 h⁻¹
CL/F (mean ± SD) (healthy volunteers [1]; [3]): 41500 ± 11000 mL/h
Fe (mean ± SD) (healthy volunteers [1]; [3]): 40.3 ± 4.69 % Dose
Ue (mean ± SD) (healthy volunteers [1]; [3]): 60.5 ± 7.04 mg and 60.5 ± 7.04 ^ mg
λz (mean ± SD) (healthy volunteers [1]; [3]): 0.1001 ± 0.0087 h⁻¹
CL/F (mean ± SD) (healthy volunteers [1]; single 150 mg oral dose, fed): 46400 ± 9900 mL/h
λz (mean ± SD) (healthy volunteers [1]; single 150 mg oral dose, fed): 0.1152 ± 0.0256 h⁻¹
effect of a high fat/high calorie meal on absorption and elimination (healthy volunteers [1]; single 150 mg, fed versus fasted): essentially no effect
CL/F (mean ± SD) (healthy volunteers [1]; [4]): 39500 ± 15600 mL/h
Fe (mean ± SD) (healthy volunteers [1]; [4]): 65.8 ± 9.33 % Dose
Ue (mean ± SD) (healthy volunteers [1]; [4]): 198 ± 28.0 mg and 198 ± 28.0 ^ mg
λz (mean ± SD) (healthy volunteers [1]; [4]): 0.1151 ± 0.0309 h⁻¹
time of maximum concentration post-dose (healthy volunteers [1]; single oral 50, 150, 300 mg): approximately 2 hours
safety and tolerability (healthy volunteers [1]; single oral doses of 50, 150, 300 mg): safe and well-tolerated
AUC(0-t) (clinical; blood, po, 50 mg, single 50 mg oral dose, fasted): 989 ng·h/mL
AUC(0-inf) (clinical; blood, po, 50 mg, AUC(inf) (mean ± SD), single 50 mg oral dose, fasted): 1240 ng·h/mL
AUC(0-t) (clinical; blood, po, 150 mg, single 150 mg oral dose, fasted): 3390 ng·h/mL
AUC(0-inf) (clinical; blood, po, 150 mg, AUC(inf) (mean ± SD), single 150 mg oral dose, fasted): 3820 ng·h/mL
AUC(0-t) (clinical; blood, po, 300 mg, single 300 mg oral dose, fasted): 8340 ng·h/mL
Cmax (clinical; in vivo, oral, 150 mg): 315 ± 62 ng/mL
Tmax (clinical; in vivo, oral, 150 mg): 2.58 h
AUC(0-inf) (clinical; in vivo, oral, 150 mg, AUC (inf) (mean ± SD), CL001, 150 mg SD, second 150 mg line, Food printed Fasted): 3400 ng·h/mL
AUC(0-t) (clinical; in vivo, oral, 150 mg, CL001, 150 mg SD, second 150 mg line, Food printed Fasted): 3100 ng·h/mL
Vd/F (clinical; in vivo, oral, 150 mg, 150 mg SD, second 150 mg line, Food printed Fasted): 406 ± 62.8 L
AUC(0-inf) (clinical; in vivo, po, 300 mg, AUC(inf) (mean ± SD), single 300 mg oral dose, fasted): 8620 ng·h/mL
CL renal (clinical; po, 50 mg): 628 ± 149 mL/min
CL renal (clinical; po, 150 mg): 310 ± 74.3 mL/min
CL renal (clinical; po, 300 mg): 441 ± 159 mL/min
AUC(0-t) (clinical; [5]): 989 ± 295 ng·h/mL
AUC(0-inf) (clinical; plasma, po, 50 mg, AUC(inf) (mean ± SD), single 50 mg oral dose, fasted): 1250 ng·h/mL
Vd/F (clinical; [5]): 395 ± 61.9 L
AUC(0-inf) (clinical; plasma, po, 50 mg, mean exposure (AUC0-∞), single oral 50 mg, fasted): 1250 ng·h/mL
Cmax (clinical; plasma, po, 150 mg): 360 ng/mL
AUC(0-t) (clinical; [6]): 3390 ng·h/mL
AUC(0-t) (clinical; [7]): 3100 ng·h/mL
AUC(0-inf) (clinical; plasma, po, 150 mg, AUC(inf) (mean ± SD), single 150 mg oral dose, fasted): 3820 ng·h/mL
AUC(0-inf) (clinical; plasma, po, 150 mg, AUC(inf) (mean ± SD), single 150 mg oral dose, fed): 3400 ng·h/mL
Vd/F (clinical; [6]): 411 ± 81 L
Vd/F (clinical; [7]): 406 ± 62.8 L
AUC(0-inf) (clinical; plasma, po, 150 mg, mean exposure (AUC0-∞), single oral 150 mg, fasted): 3820 ng·h/mL
Cmax (clinical; plasma, po, 300 mg): 781 ng/mL
Tmax (clinical; plasma, po, 300 mg): 1.96 h
AUC(0-t) (clinical; [8]): 8340 ng·h/mL
AUC(0-inf) (clinical; plasma, po, 300 mg, AUC(inf) (mean ± SD), single 300 mg oral dose, fasted): 8620 ng·h/mL
Vd/F (clinical; [8]): 346 ± 98.5 L
AUC(0-inf) (clinical; plasma, po, 300 mg, mean exposure (AUC0-∞), single oral 300 mg, fasted): 8620 ng·h/mL
NOAEL at 3 months (in vivo): 50 mg/kg
increase of AUC(0-12) from Day 1 to Day 7 (healthy volunteers [2]): 40%
